Test system: 485368-065-R4-J2-PDC spheroids with HUVEC/MSC, viability
Test: Anticancer human tumor 485368-065-R4-J2-PDC patient-derived pancreatic carcinoma cell line growth inhibition [TAK]
Conditions: for IC50: curve of first compound; for viability, T/C: stronger effect = lower value
Description: Combinatorial screen of targeted agents with TAK-243 and ipatasertib in multi-cell type tumor spheroids
A high-throughput screen of multi-cell type tumor spheroids was designed to identify active combinations of targeted small molecules and TAK-243 or ipatasertib. Complex spheroids include a stromal component modeled by human endothelial cells (HUVEC) and fibroblasts modeled by human mesenchymal stem cells (MSCs). The concentration ranges selected for each drug and investigational agent were based upon clinically achievable concentrations if the clinical Cmax of the agent was known.
Compounds. The drugs and investigational agents: TAK-243 (785004), ipatasertib (767898), everolimus (733504), selumetinib (741078), bortezomib (756655), trametinib (758246), ixazomib (758254), vemurafenib (761431), dabrafenib (764134), sapanisertib (764658), alpelisib (765974), and copanlisib (816437), were obtained from the National Cancer Institute (NCI) Developmental Therapeutics Program Chemical Repository. The FDA-approved anticancer drug set is available from the NCI Developmental Therapeutics Program. […] The stock solutions were prepared in dimethyl sulfoxide (DMSO, Sigma-Aldrich, St. Louis, MO, cat. D2650) at 800-fold the tested concentration and stored at -70 degrees C prior to their use. All drugs and investigational agents were tested over a range starting from a high concentration at or near the clinical Cmax and decreasing in half-log increments. If the clinical Cmax for an agent had not been determined, the highest concentration tested was 10 microM.
NCI60 Cell Culture. NCI60 cell lines were obtained from the NCI Developmental Therapeutics Program Tumor Repository. For each lot of cells, the Repository performed Applied Biosystems AmpFLSTR Identifiler testing with PCR amplification to confirm consistency with the published Identifier STR profile for each cell line. Cells were kept in continuous culture for no more than 20 passages. The optimal seeding densities for each of the cell lines at each time point assessed were determined prior to performing the concentration response studies. Briefly, the NCI60 human tumor lines were grown as monolayers in RPMI 1640 medium supplemented with 10% FBS and 2 mmol/L L-glutamine.
An additional 2 lines were from the NCI60 cell line panel including melanomas, MALME-3M and SK-MEL-2. Pooled donor human umbilical vein endothelial cells (HUVEC, Lonza, cat. CC-2519) and human mesenchymal stem cells (hMSC, Lonza, cat. PT-2501) were purchased from Lonza (Walkersville, MD).
PDMR cell lines were grown in complete medium (DC medium): Dulbecco's modified Eagle's medium (DMEM)/F12 supplemented with 5% fetal bovine serum (FBS), 2 mM L-glutamine, 100 U/mL penicillin and 100 µg/ml streptomycin, 0.4 µg/ml hydrocortisone, 10 ng/ml epidermal growth factor (EGF) recombinant human protein, 24 µg/mL adenine, and 0.1 mg/mL primocin. During culture from frozen stock vials, PDMR cells were cultured in the same medium containing 10 µM Y-27632 (see Table 3). The PDCs were cultured in complete DMEM/F12 media without 10 microM Y-27632 dihydrochloride for at least two passages prior to the screen. The pooled donor HUVEC and hMSC were cultured in endothelial cell growth medium 2 (PromoCell, Heidelberg, Germany, cat. C-22011) and mesenchymal stem cell growth medium 2 (PromoCell, cat. C-28009), respectively. For all experiments, HUVEC and hMSC were used at passages </=5.
For the pre-screen, cell seeding densities were determined from a titration spanning the range from 5,000 to 313 cells per well. The mct-spheroids including 60% malignant cells, 25% HUVEC and 15% MSC dispensed as a mixture into U-bottom Ultra-Low Attachment 384-well plates (Corning, NY)
High-throughput Drug Combination Screening.
Prior to their inoculation into 384-well plates, malignant cells, HUVEC, and hMSC were removed from T flasks using TrypLE express (Thermo Fisher Scientific, cat. 12605036) and harvested by centrifugation for 5 min at 233 x g. […]
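Further: spheroids exposed to compounds for seven days before readout.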
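Wherever viability, T/C is given: 100% = DMSO vehicle control wells.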

CC(C)n1nc(-c2ccc3oc(N)nc3c2)c2c(N)ncnc21 + CC(C)NCC(C(=O)N1CCN(c2ncnc3c2C(C)CC3O)CC1)c1ccc(Cl)cc1 showed an IC50 (second compound 0.3 µM) of 58.5 nM, an IC50 (second compound 0.949 µM) of 29.3 nM and an IC50 (second compound 3 µM) of 20.8 nM. The IC50 (second compound 9.49 µM) was 10.1 nM, the IC50 (second compound 30 µM) was 6.33 nM and the viability, T/C (second compound 0.3 µM, first compound 0.000316 µM) was 95.7%. It also gave a viability, T/C (second compound 0.3 µM, first compound 0.001 µM) of 88%, a viability, T/C (second compound 0.3 µM, first compound 0.00316 µM) of 90.6% and a viability, T/C (second compound 0.3 µM, first compound 0.01 µM) of 89.7%. For the same compound, the viability, T/C (second compound 0.3 µM, first compound 0.0316 µM) was 56.5%, the viability, T/C (second compound 0.3 µM, first compound 0.1 µM) was 44.4% and the viability, T/C (second compound 0.949 µM, first compound 0.000316 µM) was 98.6%. The viability, T/C (second compound 0.949 µM, first compound 0.001 µM) was 99.3%, the viability, T/C (second compound 0.949 µM, first compound 0.00316 µM) was 91.4% and the viability, T/C (second compound 0.949 µM, first compound 0.01 µM) was 66.7%. For the same compound, the viability, T/C (second compound 0.949 µM, first compound 0.0316 µM) was 51.2%, the viability, T/C (second compound 0.949 µM, first compound 0.1 µM) was 40.3% and the viability, T/C (second compound 3 µM, first compound 0.000316 µM) was 97.8%. The viability, T/C (second compound 3 µM, first compound 0.001 µM) was 94.4%, the viability, T/C (second compound 3 µM, first compound 0.00316 µM) was 81.4% and the viability, T/C (second compound 3 µM, first compound 0.01 µM) was 62.5%. For the same compound, the viability, T/C (second compound 3 µM, first compound 0.0316 µM) was 42.7%, the viability, T/C (second compound 3 µM, first compound 0.1 µM) was 34.5% and the viability, T/C (second compound 9.49 µM, first compound 0.000316 µM) was 91.9%. It also gave a viability, T/C (second compound 9.49 µM, first compound 0.001 µM) of 86.1%, a viability, T/C (second compound 9.49 µM, first compound 0.00316 µM) of 75.2% and a viability, T/C (second compound 9.49 µM, first compound 0.01 µM) of 49.4%. The viability, T/C (second compound 9.49 µM, first compound 0.0316 µM) was 36.8%, the viability, T/C (second compound 9.49 µM, first compound 0.1 µM) was 32.5% and the viability, T/C (second compound 30 µM, first compound 0.000316 µM) was 73.1%. The viability, T/C (second compound 30 µM, first compound 0.001 µM) was 69.3%, the viability, T/C (second compound 30 µM, first compound 0.00316 µM) was 57.6% and the viability, T/C (second compound 30 µM, first compound 0.01 µM) was 45.3%. It also gave a viability, T/C (second compound 30 µM, first compound 0.0316 µM) of 31.4% and a viability, T/C (second compound 30 µM, first compound 0.1 µM) of 25.7%.

CCCS(=O)(=O)Nc1ccc(F)c(C(=O)c2c[nH]c3ncc(-c4ccc(Cl)cc4)cc23)c1F + CC(C)NCC(C(=O)N1CCN(c2ncnc3c2C(C)CC3O)CC1)c1ccc(Cl)cc1 was tested, and the IC50 (second compound 0.3 µM) was greater than 100000 nM, the IC50 (second compound 0.949 µM) was greater than 100000 nM and the IC50 (second compound 3 µM) was 6760 nM. It also gave an IC50 (second compound 9.49 µM) of 6080 nM, an IC50 (second compound 30 µM) of 4180 nM and a viability, T/C (second compound 0.3 µM, first compound 0.316 µM) of 107%. It also gave a viability, T/C (second compound 0.3 µM, first compound 1 µM) of 101%, a viability, T/C (second compound 0.3 µM, first compound 3.16 µM) of 93.5% and a viability, T/C (second compound 0.3 µM, first compound 10 µM) of 50.3%. For the same compound, the viability, T/C (second compound 0.3 µM, first compound 31.6 µM) was 24.3%, the viability, T/C (second compound 0.3 µM, first compound 100 µM) was 80.8% and the viability, T/C (second compound 0.949 µM, first compound 0.316 µM) was 103%. For the same compound, the viability, T/C (second compound 0.949 µM, first compound 1 µM) was 100%, the viability, T/C (second compound 0.949 µM, first compound 3.16 µM) was 85.7% and the viability, T/C (second compound 0.949 µM, first compound 10 µM) was 40.8%. It also gave a viability, T/C (second compound 0.949 µM, first compound 31.6 µM) of 25.1%, a viability, T/C (second compound 0.949 µM, first compound 100 µM) of 85.1% and a viability, T/C (second compound 3 µM, first compound 0.316 µM) of 101%. For the same compound, the viability, T/C (second compound 3 µM, first compound 1 µM) was 99.5%, the viability, T/C (second compound 3 µM, first compound 3.16 µM) was 78.1% and the viability, T/C (second compound 3 µM, first compound 10 µM) was 34.7%. For the same compound, the viability, T/C (second compound 3 µM, first compound 31.6 µM) was 29.8%, the viability, T/C (second compound 3 µM, first compound 100 µM) was 19.4% and the viability, T/C (second compound 9.49 µM, first compound 0.316 µM) was 96.7%. The viability, T/C (second compound 9.49 µM, first compound 1 µM) was 95.6%, the viability, T/C (second compound 9.49 µM, first compound 3.16 µM) was 77.4% and the viability, T/C (second compound 9.49 µM, first compound 10 µM) was 28.8%. The viability, T/C (second compound 9.49 µM, first compound 31.6 µM) was 20.2%, the viability, T/C (second compound 9.49 µM, first compound 100 µM) was 14.8% and the viability, T/C (second compound 30 µM, first compound 0.316 µM) was 84%. The viability, T/C (second compound 30 µM, first compound 1 µM) was 83.8%, the viability, T/C (second compound 30 µM, first compound 3.16 µM) was 62.7% and the viability, T/C (second compound 30 µM, first compound 10 µM) was 10.1%. The viability, T/C (second compound 30 µM, first compound 31.6 µM) was 10.2% and the viability, T/C (second compound 30 µM, first compound 100 µM) was 9.85%.
